Results on three molecules are retold here after paper PMC8704367, “Systematic Analysis and Biochemical Characterization of the Caffeoyl Shikimate Esterase Gene Family in Poplar” (International Journal of Molecular Sciences, 2021).

What all share (type): biochemical
One test has as its target T1, PoptoHCT6 (Populus tomentosa, UniProt A0A0S1VWY1).
T1 construct: gene HCT6; cloned from cambial zone cDNA into pET28a, His-tagged, E. coli BL21(DE3), Ni-NTA
Description: preparative enzymatic synthesis of caffeoyl shikimate.

The next test concerns the target T2, PoptoCSE2 (Populus tomentosa, UniProt A0A0S1VWZ0).
T2 construct: gene CSE2; full-length CDS cloned from cambial zone cDNA into pET28a, His-tagged, E. coli BL21(DE3), Ni-NTA
T2 sequence (A0A0S1VWZ0 1-326): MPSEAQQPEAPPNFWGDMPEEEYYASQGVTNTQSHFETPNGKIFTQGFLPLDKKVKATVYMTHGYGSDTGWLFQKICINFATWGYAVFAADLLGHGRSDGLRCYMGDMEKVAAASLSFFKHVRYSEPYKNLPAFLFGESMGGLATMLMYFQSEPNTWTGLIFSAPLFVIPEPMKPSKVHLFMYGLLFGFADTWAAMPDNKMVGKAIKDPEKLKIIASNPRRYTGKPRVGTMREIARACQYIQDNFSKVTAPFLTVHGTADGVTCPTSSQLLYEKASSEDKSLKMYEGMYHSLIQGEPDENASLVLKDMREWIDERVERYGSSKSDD
The experiment in a line: HPLC-MS, appearance of caffeic acid. As to conditions: 100 uM substrate, 100 mM sodium phosphate pH 7.5, 0.5 mM DTT, 30 C; substrate made enzymatically with PoptoHCT6.

The target in another test is T3, PoptoCSE1 (Populus tomentosa, UniProt A0A0S1VWX4).
T3 construct: gene CSE1; full-length CDS cloned from cambial zone cDNA into pET28a, His-tagged, E. coli BL21(DE3), Ni-NTA
T3 sequence (A0A0S1VWX4 1-326): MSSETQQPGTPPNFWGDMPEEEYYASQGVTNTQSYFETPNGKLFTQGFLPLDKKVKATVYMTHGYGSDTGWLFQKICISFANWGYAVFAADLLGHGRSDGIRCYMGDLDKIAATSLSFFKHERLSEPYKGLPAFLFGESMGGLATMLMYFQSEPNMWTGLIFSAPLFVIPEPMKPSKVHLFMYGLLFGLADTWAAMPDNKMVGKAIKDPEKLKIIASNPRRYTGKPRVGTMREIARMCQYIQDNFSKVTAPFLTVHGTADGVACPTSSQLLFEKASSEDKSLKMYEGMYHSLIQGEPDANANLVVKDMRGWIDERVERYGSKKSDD
Description: HPLC-MS, appearance of caffeic acid. The note with it: 100 uM substrate, 100 mM sodium phosphate pH 7.5, 0.5 mM DTT, 30 C; substrate made enzymatically with PoptoHCT6.

T1 sequence (A0A0S1VWY1 1-431): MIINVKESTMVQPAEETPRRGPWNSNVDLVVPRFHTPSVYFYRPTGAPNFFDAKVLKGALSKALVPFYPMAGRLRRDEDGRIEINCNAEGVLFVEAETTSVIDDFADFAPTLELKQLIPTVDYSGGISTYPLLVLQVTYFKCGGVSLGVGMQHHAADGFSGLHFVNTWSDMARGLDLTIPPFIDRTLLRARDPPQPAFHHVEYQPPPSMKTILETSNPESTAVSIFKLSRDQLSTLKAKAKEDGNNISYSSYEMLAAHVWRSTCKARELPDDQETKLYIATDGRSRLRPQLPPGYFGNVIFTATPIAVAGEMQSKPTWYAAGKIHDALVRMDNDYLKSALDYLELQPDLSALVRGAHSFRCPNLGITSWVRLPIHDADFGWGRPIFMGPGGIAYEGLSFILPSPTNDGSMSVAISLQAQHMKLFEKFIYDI

Turning to `O=C(O)C1=C[C@@H](O)[C@@H](O)[C@H](O)C1` [shikimic acid], the “preparative enzymatic synthesis of caffeoyl shikimate” value at PoptoHCT6 (co-substrate caffeoyl-CoA) is “caffeoyl shikimate using enzymatic reaction catalyzed by purified recombinant PoptoHCT6 with caffeoyl-CoA and shikimic acid”.

For `CC(C)(COP(=O)(O)OP(=O)(O)OC[C@H]1O[C@@H](n2cnc3c(N)ncnc32)[C@H](O)[C@@H]1OP(=O)(O)O)[C@@H](O)C(=O)NCCC(=O)NCCSC(=O)/C=C/c1ccc(O)c(O)c1` [caffeoyl-CoA], the “preparative enzymatic synthesis of caffeoyl shikimate” value on PoptoHCT6 (co-substrate shikimic acid) was “caffeoyl shikimate using enzymatic reaction catalyzed by purified recombinant PoptoHCT6 with caffeoyl-CoA and shikimic acid”.

Take `O=C(/C=C/c1ccc(O)c(O)c1)O[C@@H]1CC(C(=O)O)=C[C@@H](O)[C@H]1O` [caffeoyl shikimate]: the “HPLC-MS, appearance of caffeic acid” value on PoptoCSE2 was “PoptoCSE1 and PoptoCSE2 have detectable activity against caffeoyl shikimate”; at PoptoCSE1, “PoptoCSE1 and PoptoCSE2 have detectable activity against caffeoyl shikimate”.
